Reference: paper PMC3901304 (ACS medicinal chemistry letters, 2013)

Tested on: T. gondii cells in culture
Assay: Toxoplasma cell culture study
Format: cell-based, Toxoplasma gondii
Settings: for T. gondii in cells at Day 4: no drug control 1140000; for T. gondii in media at Day 4: no drug control 3710000

Compound: Nc1nc2[nH]c3cccc(Sc4ccc5ccccc5c4)c3c2c(=O)[nH]1 [Compound 1]
- T. gondii in cells at Day 4 (compound at 5 μM): 340000
- T. gondii in media at Day 4 (compound at 5 μM): 2350000

Compound: Nc1nc2[nH]c3cccc(Sc4ccccc4)c3c2c(=O)[nH]1 [Compound 2]
- T. gondii in cells at Day 4 (compound at 5 μM): 140000
- T. gondii in media at Day 4 (compound at 5 μM): 100000

Compound: Nc1nc2[nH]c3cccc(Sc4cccc5ccccc45)c3c2c(=O)[nH]1 [Compound 3]
- effect on T. gondii in culture compared with PM (3 at 5 μM versus PM at 3 μM): equivalent to PM at 3 μM
- T. gondii in cells at Day 4 (compound at 5 μM): <2500
- T. gondii in media at Day 4 (compound at 5 μM): <25000

Compound: CCc1nc(N)nc(N)c1-c1ccc(Cl)cc1 [PM, pyrimethamine, reference compound]
- T. gondii in cells at Day 4 (PM at 3 μM): <2500
- T. gondii in media at Day 4 (PM at 3 μM): <25000
